Active and inactive are the calls of the source.
What was measured:
[1] = non-specific cell cytotoxicity, dose response, cytotoxicity control for PAX8 inhibitor project, plate reader, dry powder samples (AID 743021); assay type: functional, cell-based
[2] = molecular target: Sphingosine 1-phosphate receptor 1 (Homo sapiens, UniProt P21453); assay type: functional;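 further: Tango beta-arrestin reporter U2OS cells stimulated with S1P near its EC80; inhibitor potency meaning antagonism of receptor activation by the natural agonist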
Vero = Vero cell cytotoxicity, cytotoxicity control for flavivirus capping enzyme inhibitors (AID 588742); assay type: functional; conditions: Chlorocebus sabaeus
[3] = molecular target: Heat shock protein HSP 90-alpha (Homo sapiens, UniProt P07900); assay type: functional, organism-based
Aspartyl aminopeptidase = Aspartyl aminopeptidase (Plasmodium falciparum 3D7, UniProt Q8I2J3)
[4] = molecular target: Tyrosine-protein kinase BTK (Homo sapiens, UniProt Q06187); assay type: functional
[5] = molecular target: Homeodomain-interacting protein kinase 2 (Homo sapiens, UniProt Q9H2X6); assay type: functional;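 further: measured within a kinome-wide kinase profiling panel, HIPK2 being one panel member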
[6] = molecular target: Dual specificity protein kinase CLK2 (Homo sapiens, UniProt P49760); assay type: functional
[7] = molecular target: Mitogen-activated protein kinase kinase kinase 20 (Homo sapiens, UniProt Q9NYL2); assay type: functional
[8] = molecular target: Serine/threonine-protein kinase PLK4 (Homo sapiens, UniProt O00444); assay type: functional;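 further: PLK4 measured as one member of a kinome-wide kinase profiling panel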
[9] = molecular target: Serine/threonine-protein kinase Nek4 (Homo sapiens, UniProt P51957); assay type: functional
[10] = molecular target: RAC-gamma serine/threonine-protein kinase (Homo sapiens, UniProt Q9Y243); assay type: functional
[11] = molecular target: Serine/threonine-protein kinase pim-1 (Homo sapiens, UniProt P11309); assay type: functional
Serine/threonine-protein kinase pim-1, sequence (P11309 whole entry): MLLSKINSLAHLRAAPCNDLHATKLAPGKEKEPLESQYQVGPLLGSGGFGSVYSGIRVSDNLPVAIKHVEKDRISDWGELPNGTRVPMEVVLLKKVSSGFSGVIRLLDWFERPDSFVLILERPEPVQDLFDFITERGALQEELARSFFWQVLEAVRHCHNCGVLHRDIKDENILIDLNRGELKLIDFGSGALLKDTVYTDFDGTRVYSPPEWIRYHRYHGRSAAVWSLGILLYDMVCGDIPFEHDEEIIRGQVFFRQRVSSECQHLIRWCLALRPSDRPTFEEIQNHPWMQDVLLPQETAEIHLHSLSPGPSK

[12] = molecular target: Rho-associated protein kinase 1 (Homo sapiens, UniProt Q13464); assay type: functional;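 further: measured within a broad kinome-wide panel profiling many kinases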
[13] = molecular target: Serine/threonine-protein kinase PAK 4 (Homo sapiens, UniProt O96013); assay type: functional;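 further: value obtained within a kinome profiling panel in which PAK4 was one of the panel members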
Serine/threonine-protein kinase PAK 4, sequence (O96013 whole entry): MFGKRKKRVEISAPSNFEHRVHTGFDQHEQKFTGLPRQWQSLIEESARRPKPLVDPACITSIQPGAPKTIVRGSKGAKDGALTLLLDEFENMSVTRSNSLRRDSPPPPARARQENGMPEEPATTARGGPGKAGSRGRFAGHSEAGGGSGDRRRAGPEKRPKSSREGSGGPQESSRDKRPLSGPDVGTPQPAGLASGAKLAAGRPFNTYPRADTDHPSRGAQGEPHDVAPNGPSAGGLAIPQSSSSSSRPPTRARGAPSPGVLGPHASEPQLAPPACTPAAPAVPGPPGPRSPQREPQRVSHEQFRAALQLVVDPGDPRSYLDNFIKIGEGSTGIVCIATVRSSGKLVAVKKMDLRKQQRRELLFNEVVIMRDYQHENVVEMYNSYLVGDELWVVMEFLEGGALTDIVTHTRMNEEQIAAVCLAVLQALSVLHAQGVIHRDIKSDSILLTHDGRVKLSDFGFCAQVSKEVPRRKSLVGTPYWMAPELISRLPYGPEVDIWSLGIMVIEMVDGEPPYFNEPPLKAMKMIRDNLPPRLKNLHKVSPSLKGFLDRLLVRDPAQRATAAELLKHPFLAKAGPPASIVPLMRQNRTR

[14] = molecular target: Hepatocyte growth factor receptor (Homo sapiens, UniProt P08581); assay type: functional;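 further: kinase panel profiling across the kinome, with MET as the panel member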
[15] = molecular target: MAP kinase-activated protein kinase 5 (Homo sapiens, UniProt Q8IW41); assay type: functional;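 further: measured as one member of a kinome panel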
[16] = molecular target: Receptor tyrosine-protein kinase erbB-4 (Homo sapiens, UniProt Q15303); assay type: functional;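 further: ERBB4 member of a kinome-wide kinase profiling panel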
[17] = molecular target: MAP kinase-activated protein kinase 3 (Homo sapiens, UniProt Q16644); assay type: functional;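 further: value comes from a kinome-wide profiling panel in which MAPKAPK3 is one of the panel members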
MAP kinase-activated protein kinase 3, sequence (Q16644 whole entry): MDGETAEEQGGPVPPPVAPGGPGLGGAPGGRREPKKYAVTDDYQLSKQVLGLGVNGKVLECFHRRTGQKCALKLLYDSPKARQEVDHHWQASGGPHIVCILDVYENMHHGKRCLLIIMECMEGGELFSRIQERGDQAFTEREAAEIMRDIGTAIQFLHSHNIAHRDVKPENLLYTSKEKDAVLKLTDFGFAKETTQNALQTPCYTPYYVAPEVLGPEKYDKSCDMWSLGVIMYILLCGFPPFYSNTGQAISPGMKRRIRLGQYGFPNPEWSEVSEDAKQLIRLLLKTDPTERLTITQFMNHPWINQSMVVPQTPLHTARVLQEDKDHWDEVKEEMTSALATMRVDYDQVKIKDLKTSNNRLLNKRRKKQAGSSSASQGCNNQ

[18] = molecular target: Mitogen-activated protein kinase kinase kinase kinase 2 (Homo sapiens, UniProt Q12851); assay type: functional;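 further: measured as one member of a kinome-wide kinase panel, with MAP4K2 as the panel entry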
[19] = molecular target: Fibroblast growth factor receptor 3 (Homo sapiens, UniProt P22607); assay type: functional
[20] = molecular target: Protein kinase C zeta type (Homo sapiens, UniProt Q05513); assay type: functional;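 further: measured as one member of a broad kinase profiling panel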
Protein kinase C zeta type, sequence (Q05513 whole entry): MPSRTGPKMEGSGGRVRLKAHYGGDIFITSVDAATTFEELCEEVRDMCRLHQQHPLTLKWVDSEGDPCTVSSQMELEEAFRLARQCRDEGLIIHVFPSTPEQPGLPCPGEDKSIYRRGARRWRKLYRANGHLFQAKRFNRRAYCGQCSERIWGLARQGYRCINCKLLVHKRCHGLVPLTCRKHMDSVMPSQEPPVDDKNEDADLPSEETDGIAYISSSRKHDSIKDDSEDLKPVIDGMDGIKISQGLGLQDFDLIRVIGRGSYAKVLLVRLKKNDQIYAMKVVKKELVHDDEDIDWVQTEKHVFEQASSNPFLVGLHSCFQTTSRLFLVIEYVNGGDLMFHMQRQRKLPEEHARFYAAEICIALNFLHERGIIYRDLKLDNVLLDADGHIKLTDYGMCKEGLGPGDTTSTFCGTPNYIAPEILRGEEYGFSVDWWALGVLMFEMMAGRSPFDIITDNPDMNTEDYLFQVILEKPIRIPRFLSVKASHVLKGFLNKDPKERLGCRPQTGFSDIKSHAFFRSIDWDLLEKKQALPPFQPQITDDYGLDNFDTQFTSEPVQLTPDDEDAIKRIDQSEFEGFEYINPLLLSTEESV

[21] = molecular target: Cyclin-dependent kinase 1 (Homo sapiens, UniProt P06493); assay type: functional;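 further: Kinome-wide panel profiling, with the target listed as panel member CDC2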
[22] = molecular target: 5'-AMP-activated protein kinase catalytic subunit alpha-1 (Homo sapiens, UniProt Q13131); assay type: functional
[23] = molecular target: Eukaryotic elongation factor 2 kinase (Homo sapiens, UniProt O00418); assay type: functional
[24] = molecular target: Mitogen-activated protein kinase 12 (Homo sapiens, UniProt P53778); assay type: functional;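 further: measured as one member of a kinome-wide kinase profiling panel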
[25] = molecular target: Mast/stem cell growth factor receptor Kit (Homo sapiens, UniProt P10721); assay type: functional;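 further: KIT entry within a kinase panel assay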
[26] = molecular target: Serine/threonine-protein kinase PAK 1 (Homo sapiens, UniProt Q13153); assay type: functional
[27] = molecular target: Dual specificity tyrosine-phosphorylation-regulated kinase 1A (Homo sapiens, UniProt Q13627); assay type: functional;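 further: measured against DYRK1A as one member of a broad kinome profiling panel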
Focal adhesion kinase 1 = Focal adhesion kinase 1 (Homo sapiens, UniProt Q05397); assay type: functional;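 further: measured as one member of a kinome panel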
Focal adhesion kinase 1, sequence (Q05397 whole entry): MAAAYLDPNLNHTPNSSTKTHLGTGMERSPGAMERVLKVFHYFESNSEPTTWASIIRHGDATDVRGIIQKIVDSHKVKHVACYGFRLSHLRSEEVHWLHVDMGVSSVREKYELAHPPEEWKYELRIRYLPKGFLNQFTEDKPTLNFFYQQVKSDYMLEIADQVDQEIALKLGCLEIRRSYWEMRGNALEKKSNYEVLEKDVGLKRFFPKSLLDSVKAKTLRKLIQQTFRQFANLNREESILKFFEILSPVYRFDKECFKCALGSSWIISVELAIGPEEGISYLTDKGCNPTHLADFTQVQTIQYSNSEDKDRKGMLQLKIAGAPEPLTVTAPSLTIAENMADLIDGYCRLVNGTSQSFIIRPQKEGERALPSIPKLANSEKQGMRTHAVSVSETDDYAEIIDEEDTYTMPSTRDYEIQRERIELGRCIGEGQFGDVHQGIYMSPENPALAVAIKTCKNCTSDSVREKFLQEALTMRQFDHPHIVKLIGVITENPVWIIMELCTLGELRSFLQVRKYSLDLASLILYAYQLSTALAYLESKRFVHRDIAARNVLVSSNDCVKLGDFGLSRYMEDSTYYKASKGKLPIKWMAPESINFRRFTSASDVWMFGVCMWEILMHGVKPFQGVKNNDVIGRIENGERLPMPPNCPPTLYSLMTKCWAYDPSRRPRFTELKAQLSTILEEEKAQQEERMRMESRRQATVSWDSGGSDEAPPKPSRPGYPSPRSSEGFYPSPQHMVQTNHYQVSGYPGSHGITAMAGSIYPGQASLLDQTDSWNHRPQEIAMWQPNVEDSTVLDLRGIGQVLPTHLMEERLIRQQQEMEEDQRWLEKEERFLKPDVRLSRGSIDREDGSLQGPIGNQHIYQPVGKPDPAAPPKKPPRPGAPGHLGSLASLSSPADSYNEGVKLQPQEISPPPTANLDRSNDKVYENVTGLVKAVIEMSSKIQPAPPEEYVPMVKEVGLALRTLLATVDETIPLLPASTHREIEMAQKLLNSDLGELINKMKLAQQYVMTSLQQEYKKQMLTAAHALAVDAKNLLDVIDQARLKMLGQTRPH

[28] = molecular target: cGMP-dependent protein kinase 1 (Homo sapiens, UniProt Q13976); assay type: functional;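 further: value from a kinome panel screen with PRKG1 as the panel member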
[29] = molecular target: Ribosomal protein S6 kinase alpha-5 (Homo sapiens, UniProt O75582); assay type: functional
[30] = molecular target: Protein kinase C iota type (Homo sapiens, UniProt P41743); assay type: functional;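 further: measured within a kinome-wide kinase panel, PRKCI as panel member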
[31] = molecular target: cAMP-dependent protein kinase catalytic subunit alpha (Homo sapiens, UniProt P17612); assay type: functional
[32] = molecular target: Tyrosine-protein kinase Srms (Homo sapiens, UniProt Q9H3Y6); assay type: functional;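 further: SRMS measured as one member of a kinome-wide kinase profiling panel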
[33] = molecular target: Tyrosine-protein kinase Fer (Homo sapiens, UniProt P16591); assay type: functional;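 further: FER tested as one member of a kinome panel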
Tyrosine-protein kinase Fer, sequence (P16591 whole entry): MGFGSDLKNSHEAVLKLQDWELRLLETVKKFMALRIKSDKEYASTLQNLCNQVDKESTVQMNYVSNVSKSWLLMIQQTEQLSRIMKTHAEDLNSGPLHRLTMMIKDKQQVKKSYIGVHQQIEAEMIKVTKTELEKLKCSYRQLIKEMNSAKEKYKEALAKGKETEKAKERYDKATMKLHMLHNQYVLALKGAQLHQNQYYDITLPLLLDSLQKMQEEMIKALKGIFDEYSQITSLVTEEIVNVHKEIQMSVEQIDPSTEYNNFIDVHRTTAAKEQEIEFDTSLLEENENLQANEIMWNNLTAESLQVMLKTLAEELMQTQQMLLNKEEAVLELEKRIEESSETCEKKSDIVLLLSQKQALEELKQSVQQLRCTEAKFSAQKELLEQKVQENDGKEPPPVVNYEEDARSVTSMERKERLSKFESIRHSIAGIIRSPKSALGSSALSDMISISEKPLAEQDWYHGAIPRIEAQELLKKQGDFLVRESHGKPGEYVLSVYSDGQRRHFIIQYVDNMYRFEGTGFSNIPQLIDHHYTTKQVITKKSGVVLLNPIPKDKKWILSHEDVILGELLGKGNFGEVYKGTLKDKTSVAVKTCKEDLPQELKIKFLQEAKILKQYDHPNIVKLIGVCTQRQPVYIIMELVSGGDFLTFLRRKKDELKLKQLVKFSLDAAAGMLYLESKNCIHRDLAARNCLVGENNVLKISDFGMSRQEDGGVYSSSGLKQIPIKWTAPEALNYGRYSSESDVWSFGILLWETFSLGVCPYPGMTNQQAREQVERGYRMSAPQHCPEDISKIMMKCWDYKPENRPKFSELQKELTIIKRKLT

[34] = molecular target: Non-receptor tyrosine-protein kinase TYK2 (Homo sapiens, UniProt P29597); assay type: functional
[35] = molecular target: Tyrosine-protein kinase JAK2 (Homo sapiens, UniProt O60674); assay type: functional;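 further: JAK2 tested as one member of a kinase panel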
[36] = molecular target: Protein kinase C gamma type (Homo sapiens, UniProt P05129); assay type: functional
[37] = molecular target: RAC-alpha serine/threonine-protein kinase (Homo sapiens, UniProt P31749); assay type: functional;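 further: AKT1 affinity measured as one member of a kinome-wide kinase profiling panel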
[38] = molecular target: Ribosomal protein S6 kinase beta-1 (Homo sapiens, UniProt P23443); assay type: functional;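 further: measured as one member of a kinome-wide profiling panel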
Ribosomal protein S6 kinase beta-1, sequence (P23443 whole entry): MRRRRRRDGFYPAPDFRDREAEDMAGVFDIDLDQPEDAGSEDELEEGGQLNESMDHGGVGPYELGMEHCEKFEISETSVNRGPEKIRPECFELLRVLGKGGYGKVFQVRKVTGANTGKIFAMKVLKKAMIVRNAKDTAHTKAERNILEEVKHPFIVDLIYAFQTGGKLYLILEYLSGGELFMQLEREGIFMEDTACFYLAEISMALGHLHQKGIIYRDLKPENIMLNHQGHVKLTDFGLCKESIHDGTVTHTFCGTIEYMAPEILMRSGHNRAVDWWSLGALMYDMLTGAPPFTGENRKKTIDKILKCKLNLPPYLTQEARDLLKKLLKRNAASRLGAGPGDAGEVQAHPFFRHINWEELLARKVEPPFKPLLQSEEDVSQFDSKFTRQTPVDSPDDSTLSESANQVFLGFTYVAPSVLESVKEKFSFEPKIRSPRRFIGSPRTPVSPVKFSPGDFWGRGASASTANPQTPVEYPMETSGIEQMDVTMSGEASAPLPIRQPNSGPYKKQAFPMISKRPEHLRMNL

[39] = molecular target: Mitogen-activated protein kinase 1 (Homo sapiens, UniProt P28482); assay type: functional
BJ = assay: cells; assay type: functional, cell-based; conditions: Homo sapiens
INS1 = assay: beta cell apoptosis inhibitors, cytokine rescue, dose response, luminescence, retest (AID 449756); assay type: functional, cell-based; conditions: Rattus norvegicus;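 further: cell death triggered by IL-1 beta plus TNF-alpha plus IFN-gamma mixture; protective hits raise ATP signal compared with cytokine alone wells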
[40] = molecular target: T1, Sentrin-specific protease 8 (Homo sapiens, UniProt Q96LD8); assay type: functional;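 further: kinetic enzyme assay of SENP8 cleaving a Nedd8 protein substrate, dose-response confirmation of screening hits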
T1 sequence (Q96LD8 whole entry): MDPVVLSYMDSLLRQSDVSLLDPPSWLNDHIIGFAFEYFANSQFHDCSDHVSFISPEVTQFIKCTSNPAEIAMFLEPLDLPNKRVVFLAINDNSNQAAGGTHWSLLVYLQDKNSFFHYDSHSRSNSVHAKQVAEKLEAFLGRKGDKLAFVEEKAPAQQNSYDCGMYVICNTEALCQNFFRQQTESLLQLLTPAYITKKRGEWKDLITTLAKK

**Q.** For `CC(=O)N(C1=C(Cl)C(=O)c2ccccc2C1=O)C1CCCCC1`, which AC50 [1] is on record?
**A.** 21500 nM (active)

**Q.** And the IC50 [2]?
**A.** 9500 nM (active)

**Q.** What about the CC50 (Vero) of the same compound?
**A.** 22400 nM (active)

**Q.** What about the AC50 [3] of the same compound?
**A.** 524 nM (active)

**Q.** With `Oc1ccc(-c2cn3c(n2)SCC3)cc1O` as the compound, how does the IC50 (Aspartyl aminopeptidase) read?
**A.** 1550 nM (active)

**Q.** What does the source list for `O=C1Nc2ccc3ncsc3c2C1=CNc1ccc(S(=O)(=O)Nc2ccccn2)cc1`?
**A.** Ki [4]: 79.4 nM (active); Ki [5]: 126 nM (active); Ki [6]: 50.1 nM (active); Ki [7]: 200 nM (active); Ki [8]: 12.6 nM (active); Ki [9]: 501 nM (active); Ki [10]: > 10000 nM (inactive); Ki [11]: 1580 nM (active); Ki [12]: 316 nM (active); Ki [13]: 200 nM (active); Ki [14]: 200 nM (active); Ki [15]: 398 nM (active); Ki [16]: > 3980 nM (inactive); Ki [17]: 7940 nM (active); Ki [18]: 7.94 nM (active); Ki [19]: 12.6 nM (active); Ki [20]: > 7940 nM (inactive); Ki [21]: 20 nM (active); Ki [22]: 3.98 nM (active); Ki [23]: > 3980 nM (inactive); Ki [24]: 3160 nM (active); Ki [25]: > 1260 nM (inactive); Ki [26]: 2000 nM (active); Ki [27]: 7.94 nM (active); Ki (Focal adhesion kinase 1): > 1580 nM (inactive); Ki [28]: 126 nM (active); Ki [29]: 794 nM (active); Ki [30]: > 5010 nM (inactive); Ki [31]: 3980 nM (active); Ki [32]: > 1580 nM (inactive); Ki [33]: 1260 nM (active); Ki [34]: 251 nM (active); Ki [35]: 158 nM (active); Ki [36]: 1260 nM (active); Ki [37]: > 7940 nM (inactive); Ki [38]: 126 nM (active); Ki [39]: 158 nM (active)

**Q.** For `Cc1ccc(NC2=C/C(=N\S(=O)(=O)c3cccs3)c3ccccc3C2=O)c(C)c1`, which EC50 (BJ) is on record?
**A.** 4150 nM (active)

**Q.** And the AC50 (INS1)?
**A.** 404 nM (active)

**Q.** With `COc1ccc(/C=N/NC(=O)c2nn(-c3ccccc3)c(=O)c3c(N)scc23)cc1` as the compound, how does the IC50 [40] read?
**A.** 415 nM (active)

From ChEMBL document CHEMBL1201862, “PubChem BioAssay data set” (2004)
